From the OPERA property sets (Mansouri et al. 2018)

**Q.** Which logP does the source give for `Nc1ccc(Cl)cc1[N+](=O)[O-]` here?
**A.** 2.72

**Q.** For `Cc1ccc2cccc([N+](=O)[O-])c2n1`, which logP is on record?
**A.** 1.99

**Q.** For `Nc1ccc2c(c1)Cc1ccccc1-2`, which logP is on record?
**A.** 3.14

**Q.** Which logP does the source give for `Cc1ccc(O)c(N)c1` here?
**A.** 1.16

**Q.** For `O=[N+]([O-])c1cccc2cccc([N+](=O)[O-])c12`, which logP is on record?
**A.** 2.52

**Q.** Which logP does the source give for `COc1cc(-c2ccc(N)c(OC)c2)ccc1N` here?
**A.** 1.81

**Q.** For `Nc1ccc2ccc3cccc4ccc1c2c34`, which logP is on record?
**A.** 4.31

**Q.** With `Nc1ccccc1-c1ccccc1N` as the compound, how does the logP read?
**A.** 1.34

**Q.** For `Nc1cc(Cl)ccc1O`, which logP is on record?
**A.** 1.81

**Q.** For `O=[N+]([O-])c1cc([N+](=O)[O-])c2ccccc2c1`, which logP is on record?
**A.** 2.83

**Q.** For `O=C1Nc2ccc([N+](=O)[O-])cc2C1=O`, which logP is on record?
**A.** 0.47

**Q.** With `Cc1ccc(N)cc1N` as the compound, how does the logP read?
**A.** 0.14

**Q.** For `Cc1ccc(N)c(N)c1`, which logP is on record?
**A.** 0.66

**Q.** For `Nc1cc2ccccc2c2ccccc12`, which logP is on record?
**A.** 3.56

**Q.** Which logP does the source give for `O=[N+]([O-])c1ccc2ccccc2c1` here?
**A.** 3.24

**Q.** With `Nc1cccc2cc3ccccc3cc12` as the compound, how does the logP read?
**A.** 3.69

**Q.** For `O=[N+]([O-])c1ccc2c3c(cccc13)CC2`, which logP is on record?
**A.** 3.85

**Q.** Which logP does the source give for `COc1ccc(N)c(C)c1` here?
**A.** 1.23

**Q.** For `Nc1ccc2c3c(cccc13)-c1ccccc1-2`, which logP is on record?
**A.** 4.2

**Q.** With `O=[N+]([O-])c1cccc2c([N+](=O)[O-])cccc12` as the compound, how does the logP read?
**A.** 2.58

**Q.** For `Nc1cccc2c1Cc1ccccc1-2`, which logP is on record?
**A.** 3.18

**Q.** For `Nc1cccc(C(F)(F)F)c1`, which logP is on record?
**A.** 2.29

**Q.** With `Nc1ccc(Oc2ccccc2)cc1` as the compound, how does the logP read?
**A.** 2.96

**Q.** Which logP does the source give for `Cc1ccc(C)c(N)c1` here?
**A.** 1.83
